Results on one molecule are retold here after patent US20140348819A1, “Methods of Treating Cancer” (Dana-Farber Cancer Institute, Inc., priority 2011, published 2014).

The subject of experiment [1] is G361. The experiment can be described thus: Proliferation of G361 melanoma cells alone or co-cultured with stromal cell lines, PLX4720 with or without Crizotinib (Table 5). The format is cell-based, human. The following applies: for normalized proliferation: G361, PLX4720 - 2 uM, DMSO (no Crizotinib). From the text:
(§1) The DLD-1 cells do harbor the BRAF activating mutation V600E but are not sensitive at all to BRAF inhibition. They actually grow faster under BRAFi.
(§2) Proliferation was quantified after 7 days and normalized to non-treated cells. Bars represent standard error between replicates (n=3).
(§3) The propensity of tumors to develop resistance to a wide range of chemotherapy drugs imposes a critical hurdle to the treatment of most types of cancers. […] An optimized high-throughput screening system was used to explore the prevalence and significance of stromal cell-mediated chemoresistance in solid tumors. Forty-six GFP-labeled human cancer cell lines (Table 1) were cultured on 384-well plates either alone or co-cultured with each one of 23 human stromal cell lines (Table 3). The effects of a diverse range of widely used chemotherapy drugs (Table 2) on the proliferation of the single- or co-cultured cancer cell lines were assessed through GFP readings and through fluorescence microscopy.

Experiment [2] deals with SK-MEL-28. The experiment can be described thus: Proliferation of SK-MEL-28 melanoma cells alone or co-cultured with stromal cell lines, PLX4720 with or without Crizotinib (Table 5). The format is cell-based, human. The following applies: DMSO (no Crizotinib).
Source text: as §1, §2, §3

The subject of experiment [3] is SK-MEL-5. Description: Proliferation of SK-MEL-5 melanoma cells alone or co-cultured with stromal cell lines, PLX4720 with or without Crizotinib (Table 5). It counts as cell-based, human. The following applies: DMSO (no Crizotinib).
Source text: as §1, §2, §3

The test system of experiment [4] is WiDr. Description: Sensitivity of colorectal cancer cell line to PLX4720 with or without stromal cells (FIG. 2B). It counts as cell-based, human. To be noted: colorectal cancer cell lines represented by WiDr. From the text: The propensity of tumors to develop resistance to a wide range of chemotherapy drugs imposes a critical hurdle to the treatment of most types of cancers. While the role of the cellular microenvironment in tumor progression and metastasis has been increasingly studied in recent years, its effects on drug resistance are still underappreciated and poorly understood. An optimized high-throughput screening system was used to explore the prevalence and significance of stromal cell-mediated chemoresistance in solid tumors. Forty-six GFP-labeled human cancer cell lines (Table 1) were cultured on 384-well plates either alone or co-cultured with each one of 23 human stromal cell lines (Table 3). The effects of a diverse range of widely used chemotherapy drugs (Table 2) on the proliferation of the single- or co-cultured cancer cell lines were assessed through GFP readings and through fluorescence microscopy. Stroma-mediated primary chemoresistance was clearly detected across most cancer cell lines and chemotherapy drugs (FIGS. 1A and 1B, Tables 3 and 4). In most cases, only a small subset of the stromal cells could render a specific cancer-cell line more resistant to a specific drug, and this subset was usually the same across cancer cell lines from the same origin (FIGS. 1-4). […]

Experiment [5] has as its system V600E B-RAF melanoma cell lines. The following applies: pre-clinical trials; cited from earlier work.

Structures are written as SMILES.

Turning to `CCCS(=O)(=O)Nc1ccc(F)c(C(=O)c2c[nH]c3ncc(Cl)cc23)c1F` [PLX4720], the normalized proliferation is on record as 0.1 in experiment [1] (1069sk); 0.2 in experiment [1] (HS-5); 0.5 in experiment [1] (LL86); 0.1 in experiment [1] (No Fibro); 0.4 in experiment [1] (Wi-38); 0.1 in experiment [2] (1069sk, PLX4720 - 2 uM). Also, the normalized proliferation was found to be 0.1 in experiment [2] (HS-5, PLX4720 - 2 uM); 0.3 in experiment [2] (LL86, PLX4720 - 2 uM); 0.1 in experiment [2] (No Fibro, PLX4720 - 2 uM); 0.4 in experiment [2] (Wi-38, PLX4720 - 2 uM); 0.4 in experiment [3] (1069sk, PLX4720 - 2 uM); 0.5 in experiment [3] (HS-5, PLX4720 - 2 uM). Moreover, the normalized proliferation in experiment [3] (LL86, PLX4720 - 2 uM) was 0.8; in experiment [3] (No Fibro, PLX4720 - 2 uM) it was 0.3; in experiment [3] (Wi-38, PLX4720 - 2 uM) it was 0.6. In addition, in experiment [1] (melanoma cell lines represented by G-361, FIG. 2B), the “sensitivity to the BRAF inhibitor PLX4720” value was “sensitive”. For the same molecule, the “sensitivity to BRAFi” value in experiment [4] is listed as “largely not sensitive”. Besides, the “sensitivity of V600E B-RAF melanoma cell lines” value in experiment [5] is “extremely sensitive”.
